Measurements published in BindingDB's records for patent US20250179023 (Abbisko Therapeutics, 2025).

Biological target: Programmed cell death 1 ligand/protein 1 (Homo sapiens, UniProt Q9NZQ7)
Experiment: PD1-PDL1 HTRF Binding Activity Test
Description: The effect of compounds of the examples of the present invention on the PD-1/PD-L1 interaction was determined by the PD-1/PD-L1 binding assay kit from Cisbio (#64ICP01PEG or 64ICP01PEH).

Chain of Programmed cell death 1 ligand/protein 1 (Q9NZQ7 whole entry): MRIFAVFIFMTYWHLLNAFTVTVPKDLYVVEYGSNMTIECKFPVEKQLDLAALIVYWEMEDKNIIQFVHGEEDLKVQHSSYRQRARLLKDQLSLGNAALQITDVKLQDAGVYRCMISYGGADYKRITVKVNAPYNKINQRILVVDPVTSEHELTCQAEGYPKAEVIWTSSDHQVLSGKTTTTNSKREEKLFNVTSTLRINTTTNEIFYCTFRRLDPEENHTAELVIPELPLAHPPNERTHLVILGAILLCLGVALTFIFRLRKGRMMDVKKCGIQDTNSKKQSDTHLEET
Chain of Programmed cell death 1 ligand/protein 1 (Q15116 whole entry, further chain): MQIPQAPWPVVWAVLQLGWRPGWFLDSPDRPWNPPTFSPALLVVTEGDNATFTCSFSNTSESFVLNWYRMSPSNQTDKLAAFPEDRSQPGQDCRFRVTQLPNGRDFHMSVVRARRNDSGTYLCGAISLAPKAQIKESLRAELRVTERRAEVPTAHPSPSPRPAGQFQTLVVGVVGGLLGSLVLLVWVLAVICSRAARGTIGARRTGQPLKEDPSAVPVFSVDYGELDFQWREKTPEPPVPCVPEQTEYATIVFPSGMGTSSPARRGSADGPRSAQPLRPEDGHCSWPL

Cc1c(NC(=O)c2cc(C3CC3)c(CNCCC34CCC(C(=O)O)(CC3)C4)cn2)cccc1-c1cccc(NC(=O)c2cc(C3CC3)c(CNC34CCC(C(=O)O)(CC3)C4)cn2)c1C [US20250179023, Example 5] gave an IC50 of 4.19 nM.
